From patent US20220330549A1, “USE OF N-BENZYLBENZAMIDE-BASED COMPOUND AS HERBICIDE” (Northwest A&F University, priority 2020, published 2022)

Columns and labels:
Format in all cases: in vivo
[1] = system: Barnyard grass; experiment: Herbicidal activity test for indoor pre-emergence soil treatment; design: key: level 1-9; higher = more weed remaining vs blank control; conditions: 150 g a.i./ha, visual inspection 21 days after treatment
Outline: (§1)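 Pre-emergence soil spray per NY/T 1155.3-2006: weed seeds sown in moistened neutral sandy loam (organic content ≤2%), covered with 0.5–2.0 cm soil, then sprayed 24 h later with a water-diluted 10% emulsifiable concentrate at 150 g(a.i.)/ha. Visual rating after 21 days on a 1–9 scale.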

[2] = system: Piemarker; experiment: as above; design: key: level 1-9; higher = more weed remaining vs blank control; conditions: 150 g a.i./ha, visual inspection 21 days after treatment
Outline: as §1

[3] = system: green bristlegrass; experiment: as above; design: key: level 1-9; higher = more weed remaining vs blank control; conditions: 150 g a.i./ha, visual inspection 21 days after treatment
Outline: as §1

[4] = system: Amaranthus retroflexus; experiment: as above; design: key: 1-9 levels; higher = more weed remaining vs blank control; conditions: 150 g a.i./ha, visual inspection 21 days after treatment
Outline: as §1

[5] = system: Digitaria sanguinalis; experiment: as above; design: key: 1-9 levels; higher = more weed remaining vs blank control; conditions: 150 g a.i./ha, visual inspection 21 days after treatment
Outline: as §1

[6] = system: Humulus scandens; experiment: as above; conditions: 150 g a.i./ha, visual inspection 21 days after treatment
Outline: as §1

[7] = system: Amaranthus retroflexus; experiment: Herbicidal activity test for indoor post-emergence spraying on stems and leaves; design: key: grade level by weed remaining vs blank control, e.g. 5 = 10.1-15%; conditions: 150 g a.i./ha, visual inspection 21 days after treatment
Outline: (§2)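 Run per NY/T 1155.4-2006: weeds sown, grown in greenhouse, then sprayed post-emergence on stems and leaves. Effect scored visually 21 days after treatment on a graded level scale relative to weed in the blank control area.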

[8] = system: Barnyard grass; experiment: as above; design: key: grade level by weed remaining vs blank control, e.g. 5 = 10.1-15%; conditions: 150 g a.i./ha, visual inspection 21 days after treatment
Outline: as §2

[9] = system: Digitaria sanguinalis; experiment: as above; design: key: grade level by weed remaining vs blank control, e.g. 5 = 10.1-15%; conditions: 150 g a.i./ha, visual inspection 21 days after treatment
Outline: as §2

[10] = system: Humulus scandens; experiment: as above; design: key: grade level by weed remaining vs blank control, e.g. 5 = 10.1-15%; conditions: 150 g a.i./ha, visual inspection 21 days after treatment
Outline: as §2

[11] = system: Piemarker; experiment: as above; design: key: grade level by weed remaining vs blank control, e.g. 5 = 10.1-15%; conditions: 150 g a.i./ha, visual inspection 21 days after treatment
Outline: as §2

[12] = system: green bristlegrass; experiment: as above; design: key: grade level by weed remaining vs blank control, e.g. 5 = 10.1-15%; conditions: 150 g a.i./ha, visual inspection 21 days after treatment
Outline: as §2

[13] = system: Broadleaf weed; experiment: Post-emergence herbicidal activity test in a paddy field; design: key: level scale; higher level = more weed left vs blank control; conditions: 150 g a.i./ha (penoxsulam control 250 g(a.i.)/h)
Outline: (§3)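 Efficacy was visually estimated 15 and 30 days after spraying, grading weed coverage relative to an untreated neighbouring plot (level 2 = 0 to 2.5%, level 9 = 67.6 to 100%). Treatments were 150 g(a.i.)/ha from 10% emulsifiable concentrates applied at the 4-5 leaf rice stage, four repeats of 50 m^2 each.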

[14] = system: Cyperaceae; experiment: as above; design: key: level scale; higher level = more weed left vs blank control; conditions: 150 g a.i./ha (penoxsulam control 250 g(a.i.)/h)
Outline: as §3

[15] = system: Gramineae; experiment: as above; design: key: level scale; higher level = more weed left vs blank control; conditions: 150 g a.i./ha (penoxsulam control 250 g(a.i.)/h)
Outline: as §3

[16] = system: Acalypha australis; experiment: Field test for weed control in a corn field; conditions: for Post-emergence weed control effect, Acalypha australis: 150 g a.i./ha, after treatment
Outline: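 Post-emergence field trial in a corn field following GB/T 17980.42-2000. Test compounds were formulated as 10% emulsifiable concentrates, diluted in water, and sprayed at 150 g(a.i.)/ha when corn had 2 to 5 leaves, with 4 replicates on 20 m^2 plots. Mesotrione 25% oil dispersion served as the control agent. Weed control was scored on a 1-9 scale.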

[17] = system: Amaranthus retroflexus; experiment: Field test for weed control in a corn field; conditions: for Post-emergence weed control effect, Amaranthus retroflexus: 150 g a.i./ha, 30 days after treatment
Outline: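 Field efficacy trial in a corn field following GB/T 17980.42-2000. Test compounds were formulated as 10% emulsifiable concentrates, diluted in water and sprayed post-emergence when corn had 2 to 5 leaves. Each treatment covered 20 m^2 with 4 replicates. A 25% mesotrione oil dispersion served as control. Damage to Amaranthus retroflexus was rated on a 1-9 scale against untreated blank plots.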

[18] = system: Barnyard grass; experiment: Field test for weed control in a corn field; conditions: for Post-emergence weed control effect, Barnyard grass: 150 g a.i./ha, 30 days after treatment
Outline: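 Corn-field efficacy trial following GB/T 17980.42-2000. Test compounds were formulated as 10% emulsifiable concentrates, diluted in water and sprayed post-emergence at 150 g(a.i.)/ha when corn had 2 to 5 leaves. Each treatment was replicated 4 times on 20 m^2 plots. Barnyard grass control was rated on a 1-9 damage scale.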

[19] = system: Chenopodium album; experiment: Field test for weed control in a corn field; conditions: for Post-emergence weed control effect, Chenopodium album: 150 g a.i./ha, after treatment
Outline: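 A corn-field efficacy trial following GB/T 17980.42-2000 tested post-emergence control of Chenopodium album. Test compounds formulated as 10% emulsifiable concentrates were diluted in water and sprayed at 150 g(a.i.)/ha when the corn had 2 leaves to 5 leaves, on 20 m^2 plots with 4 replicates. Herbicidal activity was rated on a 1-9 scale by damage symptoms and severity.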

[20] = system: Convolvulus arvensis; experiment: Field test for weed control in a corn field; conditions: for Post-emergence weed control effect, Convolvulus arvensis: 150 g a.i./ha, after treatment
Outline: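 Field trial of weed control against Convolvulus arvensis in corn, run following GB/T 17980.42-2000. Test agents were formulated as 10% emulsifiable concentrates and sprayed in water at 150 g(a.i.)/ha when corn plants had 2 to 5 leaves. Each treatment was replicated 4 times on 20 m^2 plots, and 25% mesotrione oil dispersion served as the control agent.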

[21] = system: Digitaria sanguinalis; experiment: Field test for weed control in a corn field; conditions: for Post-emergence weed control effect, Digitaria sanguinalis: 150 g a.i./ha, after treatment
Outline: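 Field trial in a corn field following GB/T 17980.42-2000. Test compounds were formulated as 10% emulsifiable concentrates, diluted in water and sprayed post-emergence at 150 g(a.i.)/ha when corn had 2 to 5 leaves, with 4 replicates on 20 m^2 plots. Control of Digitaria sanguinalis was scored on a 1-9 scale based on weed damage relative to the untreated blank area.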

[22] = system: Portulaca oleracea; experiment: Field test for weed control in a corn field; conditions: for Post-emergence weed control effect, Portulaca oleracea: 150 g a.i./ha, after treatment
Outline: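 Field efficacy trial in corn following GB/T 17980.42-2000. Test compounds were prepared as 10% emulsifiable concentrates, diluted in water, and sprayed at 150 g(a.i.)/ha when corn had 2 to 5 leaves after sowing. Plots were 20 m^2 with 4 replicates per treatment. Herbicidal activity was scored on a 1-9 scale from weed damage symptoms and severity.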

[23] = system: Solanum nigrum; experiment: Field test for weed control in a corn field; conditions: for Post-emergence weed control effect, Solanum nigrum: 150 g a.i./ha, 30 days after treatment
Outline: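 Post-emergence weed control was tested in a corn field following GB/T 17980.42-2000. Compounds were made into 10% emulsifiable concentrates, diluted in water and sprayed at 150 g(a.i.)/ha when corn had 2 to 5 leaves after sowing, in 20 m^2 plots with 4 replicates. Effects on Solanum nigrum were graded on a 1-9 scale relative to the blank control area.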

[24] = system: goosegrass; experiment: Field test for weed control in a corn field; conditions: for Post-emergence weed control effect, Goose grass: 150 g a.i./ha, after treatment
Outline: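 Weed control efficacy against goosegrass was tested in a corn field following GB/T 17980.42-2000. Compounds formulated as 10% emulsifiable concentrates were diluted in water and sprayed post-emergence at 150 g(a.i.)/ha when corn had 2 to 5 leaves, with 4 replicates of 20 m^2 plots. Herbicidal activity was rated on a 1-9 scale by damage symptoms and severity.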

[25] = system: green bristlegrass; experiment: Field test for weed control in a corn field; conditions: for Post-emergence weed control effect, Green bristlegrass: 150 g a.i./ha, after treatment
Outline: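 Post-emergence weed control was tested in a corn field following GB/T 17980.42-2000. When the corn had 2 leaves to 5 leaves after sowing, 10% emulsifiable concentrates diluted in water were sprayed at 150 g(a.i.)/ha on 20 m^2 plots, four replicates per treatment. Effects on green bristlegrass were scored on a 1-9 damage scale relative to the blank control area.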

[26] = system: nutgrass flatsedge; experiment: Field test for weed control in a corn field; conditions: for Post-emergence weed control effect, Nutgrass flatsedge: 150 g a.i./ha, after treatment
Outline: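 A corn field efficacy trial following GB/T 17980.42-2000 assessed post-emergence control of nutgrass flatsedge. Test compounds were formulated as 10% emulsifiable concentrates, diluted in water, and sprayed at 150 g(a.i.)/ha when the corn had 2 to 5 leaves. Each treatment had 4 replicates on 20 m^2 plots. Herbicidal activity was graded on a 1-9 scale by damage symptoms and severity.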

[27] = 150 g(a.i.)/ha, 21 days after treatments

| SMILES | Herbicidal Activity Barnyard grass [1] | Herbicidal Activity Piemarker [2] | Herbicidal Activity Green bristlegrass [3] | Herbicidal Activity Amaranthus retroflexus [4] | Herbicidal Activity Digitaria sanguinalis [5] | Herbicidal Activity Humulus scandens [6] | Herbicidal Activity Amaranthus retroflexus [7] | Herbicidal Activity Barnyard grass [8] | Herbicidal Activity Digitaria sanguinalis [9] | Herbicidal Activity Humulus scandens [10] | Herbicidal Activity Piemarker [11] | Herbicidal Activity Green bristlegrass [12] | Herbicidal activity 15 days after treatment Broadleaf weed [13] | Herbicidal activity 30 days after treatment Broadleaf weed [13] | Herbicidal activity 15 days after treatment Cyperaceae [14] | Herbicidal activity 30 days after treatment Cyperaceae [14] | Herbicidal activity 15 days after treatment Gramineae [15] | Herbicidal activity 30 days after treatment Gramineae [15] | Post-emergence weed control effect, Acalypha australis [16] | Post-emergence weed control effect, Amaranthus retroflexus [17] | also measured |
| --- | --- | --- | --- | --- | --- | --- | --- | --- | --- | --- | --- | --- | --- | --- | --- | --- | --- | --- | --- | --- | --- |
| COc1ccc(OC)c(C(=O)NCc2ccc(F)cc2)c1 [Compound A23] | 1 | 2 (equivalent to 0 to 2.5% of the weed in the blank control area) | 1 | 2 (equivalent to 0 to 2.5% of the weed in the blank control area) | 1 | 4 (equivalent to 5.1 to 10% of the weed in the blank control area) | 1 | 1 | 1 | 1 | 1 | 1 | 1 | 1 | 1 | 1 | 1 | 1 | 2 (equivalent to 0 to 2.5% of the weed in the blank control area) | 1 | Post-emergence weed control effect, Barnyard grass [18]: 2 (equivalent to 0 to 2.5% of the weed in the blank control area); Post-emergence weed control effect, Chenopodium album [19]: 1; Post-emergence weed control effect, Convolvulus arvensis [20]: 1; Post-emergence weed control effect, Digitaria sanguinalis [21]: 2 (equivalent to 0 to 2.5% of the weed in the blank control area); Post-emergence weed control effect, Portulaca oleracea [22]: 1; Post-emergence weed control effect, Solanum nigrum [23]: 2 (equivalent to 0 to 2.5% of the weed in the blank control area); Post-emergence weed control effect, Goose grass [24]: 2 (equivalent to 0 to 2.5% of the weed in the blank control area); Post-emergence weed control effect, Green bristlegrass [25]: 1; Post-emergence weed control effect, Nutgrass flatsedge [26]: 3 (equivalent to 2.6 to 5% of the weed in the blank control area) |
| Cc1cccc(C(=O)NCc2ccc(F)c(Cl)c2)n1 [Compound B30] | 1 | 1 | 1 | 1 | 1 | 2 (equivalent to 0 to 2.5% of the weed in the blank control area) | 1 | 1 | 1 | 1 | 1 | 1 | 1 | 1 | 1 | 2 (equivalent to 0 to 2.5% of the weed in the blank control area) | 1 | 1 | 1 | 1 | controlling effect on Acalypha australis [16, 27]: 1; controlling effect on Amaranthus retroflexus [17, 27]: 1; Post-emergence weed control effect, Barnyard grass [18]: 1; controlling effect on barnyard grass [18, 27]: 1; Post-emergence weed control effect, Chenopodium album [19]: 1; controlling effect on Chenopodium album [19, 27]: 1; Post-emergence weed control effect, Convolvulus arvensis [20]: 1; controlling effect on Convolvulus arvensis [20, 27]: 1; Post-emergence weed control effect, Digitaria sanguinalis [21]: 1; controlling effect on Digitaria sanguinalis [21, 27]: 1; Post-emergence weed control effect, Portulaca oleracea [22]: 1; controlling effect on Portulaca oleracea [22, 27]: 1; Post-emergence weed control effect, Solanum nigrum [23]: 1; controlling effect on Solanum nigrum [23, 27]: 1; Post-emergence weed control effect, Goose grass [24]: 1; controlling effect on goosegrass [24, 27]: 1; Post-emergence weed control effect, Green bristlegrass [25]: 1; controlling effect on green bristlegrass [25, 27]: 1; Post-emergence weed control effect, Nutgrass flatsedge [26]: 1; controlling effect on nutgrass flatsedge [26, 27]: 1 |
